Measurements taken from US20140099385A1, “INHIBITION OF FATTY ACID AND C[…] BY CARBON MONOXIDE (CO)” (priority 2011, published 2014).

Assays:
[1] = 25° C.; cited from earlier work
PGRMC1 = PGRMC1 (Homo sapiens, UniProt O00264); test: Absorption spectrum of the PGRMC1 protein (CO binding to heme); conditions: FIG. 3
Excerpt: FIG. 3 is the graphs showing the absorption spectrum of the PGRMC1 protein.
Furthermore, PGRMC1 (Progesterone Receptor Membrane associated Component 1) was identified as one of the molecules involved with the inhibition of fatty acid or cholesterol uptake by CO. PGRMC1 is a heme binding protein, and an absorption peak is thought to have appeared at 419 nm because CO bound to the heme of PGRMC1 (FIG. 3). […] Thus, when the PGRMC1 gene was knocked down in a cell, the uptake of a fatty acid was suppressed (FIG. 4).

HuH7 cell [2] = test: LDL uptake inhibition in a cell by CO (FITC-conjugated LDL, fluorescence microscope); assay type: cell-based, human; conditions: FITC-conjugated LDL 8 mg/ml, 1 μM CO—Ru, 2 hours, FIG. 2
Method: After culturing the HuH7 cell in the same manner as above in a dish covered with a slide glass, the medium was discarded, and fluorescence-labeled FITC-conjugated LDL (Molecular Probes) was added to serum free DMEM so as to give the final concentration of 8 mg/ml to carry out the culture for 2 hours (control). Additionally, at the same time with this procedure, 1 μM of CO—Ru was added in the same manner as above to carry out the analysis. After culturing, the medium was discarded, the cell was washed 3 times with PBS and DAPI reagent (2 ng/ml; Wako Pure Chemical Industries, Ltd.) was added to react for 5 minutes. The observation was carried out using a fluorescence microscope, whereby FITC-LDL derived Green fluorescence as the […] and DAPI derived Blue fluorescence were detected. […] On the other hand, in the cell to which CO—Ru was added, the margin of blue stained area is not stained green.

[3] = test system: human hepatoma cell line HuH7 cell; test: Stearic acid uptake inhibition in a cell by CO (Nile Red staining, fluorescence microscope); assay type: cell-based; conditions: 400 μM stearic acid, 1 μM test substance, 12 hours, FIG. 1
Method: The human hepatoma cell line HuH7 cell was seeded in a 6-well plate (Iwaki) covered with a slide glass (1 cm^2; matsunami glass) and cultured using DMEM+10% FCS in a CO2 incubator overnight. After the culture, the medium was discarded, 1% BSA (Wako Pure Chemical Industries, Ltd.) wherein stearic acid (sigma) was dissolved in serum free DMEM to give a final concentration of 400 μM was added thereto, and the cell was cultured again for 12 hours in a CO2 incubator. Further, as a CO sustained-release drug, 1 μM of CO—Ru (Sigma CORM2 ([Ru(CO)3Cl2]2)) was used) or 1 μM of ruthenium complex as a control was added together with a fatty acid to carry out the culture. Subsequently, the medium was discarded, the cell was washed 3 times with PBS, and Nile Red reagent (sigma) dissolved in PBS on the slide glass so as to be 100 ng/ml was added to react for 5 minutes, thereby staining the fatty acid. Further, the cell was washed 3 times with PBS, DAPI reagent (2 ng/ml; Wako Pure Chemical Industries, Ltd.) was added to react for 5 minutes, thereby staining the nucleus. The nucleus was observed using a fluorescence microscope, whereby Nile Red derived Green fluorescence as the fatty acid and DAPI derived Blue fluorescence were detected. […]

HuH7 cell [4] = test: Stearic acid and palmitic acid uptake in a cell wherein the PGRMC1 gene is knocked down by siRNA; assay type: cell-based, human; conditions: HuH7 cell transfected with siRNA
Method: In the experiment of Example 1, siRNA (sequence: […]) (SEQ ID NO: 1) targeting PGRMC1 was transfected to the cell line HuH7 cell derived from human hepatocellular carcinoma by the lipofection method (Lipofectamin 2000, INVITROGEN Corporation) to knockdown the PGMRMC1 gene. In the same manner as in Example 1, 1% BSA (Wako Pure Chemical Industries, Ltd.) wherein stearic acid (sigma) or palmitic acid was dissolved to give the final concentration of 400 μM was added to the HuH7 cell wherein the PGRMC1 gene was knocked down, and the cell was cultured. The medium was discarded, the cell was washed 3 times with PBS, and Nile Red reagent (sigma) dissolved in PBS on the slide glass so as to be 100 ng/ml was added to react for 5 minutes, thereby staining the fatty acid. Further, the cell was washed 3 times with PBS, DAPI reagent (2 ng/ml; Wako Pure Chemical Industries, Ltd.) was added to react for 5 minutes, thereby staining the nucleus. The nucleus was observed using a fluorescence microscope, whereby Nile Red derived Green fluorescence as the fatty acid and DAPI derived Blue fluorescence were detected. […] On the other hand, when palmitic acid (FIG. 4C) or stearic acid (FIG. 4D) was added to the cell wherein the PGRMC1 gene was knocked down, the margin of blue stained area is not stained green.

PGRMC1, sequence (O00264 whole entry, species assumed): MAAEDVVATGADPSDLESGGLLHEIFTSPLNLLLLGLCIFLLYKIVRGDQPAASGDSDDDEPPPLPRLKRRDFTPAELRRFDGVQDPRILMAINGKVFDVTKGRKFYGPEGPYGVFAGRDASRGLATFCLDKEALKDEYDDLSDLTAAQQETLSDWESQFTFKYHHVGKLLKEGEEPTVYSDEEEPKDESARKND

[C-]#[O+] [CO, carbon monoxide]
amount of CO that can be dissolved in aqueous solution [1]: about 21.4 mL per liter | absorption peak on CO binding to the heme of PGRMC1 (PGRMC1): 419 nm

[C-]#[O+].[C-]#[O+].[C-]#[O+].[C-]#[O+].[C-]#[O+].[C-]#[O+].[Cl][Ru][Cl].[Cl][Ru][Cl] [CO—Ru, [Ru(CO)3Cl2]2]
uptake of LDL in the cell (FITC-LDL green fluorescence) (HuH7 cell [2]): the uptake of LDL was inhibited | uptake of stearic acid in the cell (green Nile Red staining) [3]: the uptake of stearic acid was inhibited

siRNA: siRNA (sequence: GAUGUGACCAAAGGCCCGCAAAUUCU) targeting PGRMC1 (listed as RNA, chemistry not given here)
uptake of palmitic acid in the PGRMC1 knockdown cell (HuH7 cell [4]; 400 μM palmitic acid, FIG. 4C): inhibited | uptake of stearic acid in the PGRMC1 knockdown cell (HuH7 cell [4]; 400 μM stearic acid, FIG. 4D): inhibited
